The test system of experiment [1] is MycspAAO. Particulars: 0.1-80 mM HMF, 10 µg/ml enzyme, 100 mM sodium phosphate pH 8, 30 °C.
Experiment [2] relates to MycspAAO. Briefly: initial rates from HMF concentration over time, Lineweaver-Burk. Type of experiment: biochemical, Mycobacterium sp. MS1601. The following applies: 0.1-80 mM HMF, 10 µg/ml enzyme, 100 mM sodium phosphate pH 8, 30 °C.

Where two headings read alike, the source gives them in different places.

By Km is commonly meant the substrate concentration at which the rate is half of its maximum.

Take `O=Cc1ccc(CO)o1` [5-hydroxymethylfurfural]: the Michaelis-Menten constant (Km) came out at 1900 ± 5 µM in experiment [1] and 3300 ± 300 µM in experiment [2].

These data come from PMC9328741 (Microbial Biotechnology, 2022).
